Data on 15 compounds can be found in US5378694A, “Acyl and alkoxy substituted quinolines” (Schering Corporation, priority 1993, dated 1995).

Like-named read-outs stand apart in the source and are kept apart here.

One series concerns HSV-2, strain MS. The experiment in a line: In vivo anti-HSV efficacy, prophylactic guinea pig model of HSV infection. Conditions: 60 mg per kg s.c., T.I.D., 10 days; for Neurological Dysfunction (%): percentage of animals developing loss of bladder/hindlimb control, placebo 66; for MLS (Maximum Lesion Scores): scale of 1 to 4, first dose 24 hours before infection, placebo 2.22. The procedure: The in vivo assessment of anti-HSV efficacy was determined in the prophylactic guinea pig model of HSV infection described by Stansberry et al. (1982). Dosing of guinea pigs comprised an initial treatment with test compound given 24 hours prior to virus infection and subsequent administration of the compound every eight hours (T.I.D.) for a total of 10 days. Test compounds were administered subcutaneously in 0.5% buffered methyl cellulose at a dose of 60 mg per kg body weight of the animal. Animals were monitered daily for the development of genital lesions and neurological symptomology, both of which were recorded and compared to the results obtained with parallel groups which received placebo or acyclovir. Efficacy was evaluated for each compound by scoring the ability of the compound to ameliorate genital lesions produced by infection with HSV-2, strain MS, expressed as Maximum Lesson Scores (MLS) on a scale of 1 (least lessions) to 4 (severe lessons).

Series [1] in a line: Compound toxicity assay: inhibition of HeLa cell translation (3H-LEU assay). In kind it is cell-based. As to conditions: human; HeLa cells, cellular translational activity; read-out: CYTOTOXICITY 3H-LEU ASSAY IC50. As for the experimental part:
HeLa cells were treated with inhibitory compound for 24 hours, after which levels of translational activity were assayed.
For assay of translational activity, HeLa cultures were grown to 80% confluency in 96 well microtiter plates, treated with appropriate concentrations of compound in 2% EMEM during an overnight incubation at 37° C., then rinsed with HBSS and overlaid with […] of 2% EMEM containing 8 μCi of tritiated leucine (^3 H-LEU, 141 Cu/mMol, Amersham Corp., Arlington Heights Ill.). After a 1 hour incubation at 36.5° C., the cells were rinsed twice with phosphate-buffered saline (PBS) and lysed in 400 ul/well of 1 × PBS, 0.5% sodium dodecyl sulphate (SDS). After a 10 min incubation at 36.5° C., the contents of the well were transferred to a well in a Millititer HA microfiltration plate (Millipore Corp., Bedford, Mass.). The TCA-insolubleproteins were precipitated onto the filter disc by a 10 min fixation with 5% TCA, followed by filtration under vacuum and three 10 minute rinses with 95% ethanol. The filters were dried at room temperature, cut from the milltitier plate and transferred to scintillation vials. TCA-precipitable counts were assayed in 5 ml of Scintisol (Isolab, Akron, Ohio). The inhibitory activity of a compound was plotted versus the concentration and an IC50 value (that concentration of the compound required to decrease cellular translational activity by 50%) was derived for each compound.

The next series concerns HSV-2 (strain MS). In words: Transient expression of beta galactosidase in transfected HeLa cells superinfected with HSV-2 (HSV-β-Gal assay). In kind it is cell-based. Conditions: 24 hours. The procedure: HeLa and Vero cell cultures were maintained in Eagles Minimal Essential Medium (EMEM) which was supplemented with glutamine, penicillin, streptomycin and 10% fetal calf serum (10% EMEM). Stock cultures of HSV-2 (strain MS available from ATCC VR-540) were grown in and harvested from Vero cells. Viral stocks were titered in Vero cells according to established procedures.
Plasmid pON^ori- 245 contains the promoter of the HSV-1 thymidine kinase (tk) gene located immediately 5' of the E. coli lac Z gene. In this arrangement, the tk promoter controls transcription from the bacterial gene in transient expression assays. Additionally, an SV40 polyadenylation signal is present at the 3' end of the lac Z gene to allow for the efficient translation of the mRNA in eucaryotic cells. The expression of beta galactosidase in a transient assay using pON 245^ori- is dependent upon superinfection of the transfected cells with HSV. […] For example, see European Patent Application No. 88302149.5 filed Mar. 11, 1988 and published Sep. 14, 1988 as 282,330, the disclosure of which is incorporated herein by reference thereto.
HeLa cells were seeded into 96 well microtiter plates and allowed to grow to 80% confluency (approximately 35000 cells/well). One half microgram of plasmid pON 245^ori- DNA was introduced into the cells of each well by the […] precipitation technique (Grabman and Van der Eb, 1973). Four to six hours later, the cells were rinsed with Hank's Balanced Salt Solution (HBSS), overlaid with 10% EMEM and incubated at 37° C. At 24 hours post-transfection, cells were rinsed, overlaid with 10% EMEM again and re-incubated at 37° C. At 48 hours post-transfection, cells were rinsed and overlaid with either EMEM containing 2% fetal calf serum (2% EMEM), 2% EMEM containing HSV-2 (strain MS, Multiplicity of Infection [moi]=5 pfu/cell) or 2% EMEM containing HSV-2 and the appropriate concentration of the compound to be tested. Twenty-four hours later, the cells were harvested and assayed for beta-galactosidase activity as described below.
All determinations of beta galactosidase activity were performed in 96-well microtiter plates. The intracellular level of beta-galactosidase activity in each well was determined from cell lysates of the monolayer cultures. Aliquots were assayed by incubation in the presence of beta-galactosidase substrate, 4-methylumbelliferyl-β-D-galactoside (MUG, 125 ug/ml, Sigma), for 2 hours. The generation of fluorescent product was quantified on a Microfluor microfluorimeter (Dynatech) after addition of 0.1M glycine, pH 10.3 (Spaete and Mocarski, 1985). The inhibitory activity of a compound was plotted versus the concentration and an IC50 value (the concentration in mcg/ml of compound required to reduce beta-galactosidase expression by 50%) was obtained for each compound tested.

The target in series [2] is T1, cGMP phosphodiesterase (cGMP-PDE) (Bos taurus, UniProt Q28156).
T1 construct: is a homogeneous enzyme obtained from bovine lung; from tissue; host or cells: bovine lung
The experiment in a line: Phosphodiesterase inhibition in vitro (cGMP-PDE). In kind it is biochemical. As to conditions: bovine lung cGMP-PDE; 1 μM 3H-cGMP, pH 7.5, 25 minutes, room temperature.

Series [3] is described as follows: SHR assay, blood pressure in conscious spontaneously hypertensive rats. In kind it is in vivo, rat (spontaneously hypertensive rats. Conditions: P.O. As for the experimental part: The ability of the compounds to lower blood pressure can be assessed in vivo in conscious spontaneously hypertensive rats (SHRs). SHR males are purchased from Taconic Farms, Germantown, N.Y. and are approximately 16-18 weeks old when anesthetized with ether. The caudal (ventral tail) artery is cannulated with polyethylene tubing (PE50), and blood pressure and heart rate are recorded as described by Baum, T. et. al., J. Cardiovasc. Pharmacol., Vol 5, pp. 655-667 (1983). Rats are placed into plastic cylindrical cages where they rapidly recover consciousness. Blood pressure and heart rate are allowed to stabilize for approximately 90 minutes prior to administration of the test compound. Compounds are administered orally as solutions or suspensions in 0.4% aqueous methylcellulose vehicle via a feeding needle. The compound or 0.4% aqueous methylcellulose vehicle is given in a volume of 4 ml/kg to SHRs that been fasted overnight. Activity is expressed as the fall in mean blood pressure (MBP) in millimeters of mercury (mm Hg). Compound-induced changes are compared with the changes in an appropriate placebo group.

A further series concerns HSV-2. As to conditions: against HSV-2; cited from earlier work.
The next series concerns HSV-1. As to conditions: against HSV-1; cited from earlier work.
The subject of another series is HSV. Conditions: humans; cited from earlier work.
The test system of a further series is herpes virus. As to conditions: mammals; cited from earlier work.
Setting [4] is: Human alphaherpesvirus 2, moi 5 pfu/cell, read-out: ANTI-HSV ACTIVITY HSV-β-Gal ASSAY IC50.
Setting [5] is: Human alphaherpesvirus 2, Repeat, moi 5 pfu/cell, read-out: ANTI-HSV ACTIVITY HSV-β-Gal ASSAY IC50 (repeat).

Consider `Nc1nc2c(ncn2COCCO)c(=O)[nH]1` [Acyclovir, 9-[(2-hydroxyethoxy)methyl]guanine, reference compound], for which, in the series with HSV-2, strain MS, the “Neurological Dysfunction (%)” value is 44% and the “MLS (Maximum Lesion Scores)” value amounted to 1.61.
Turning to `Cc1cccc2c(O)c(C=O)c(=O)n(Cc3ccccc3)c12` [Formula 1.3], in series [1], the CC50 at 24 h stood at 29 µg/mL. The IC50 was 3 µg/mL with HSV-2 (strain MS) (setting [4]) and 10 µM in series [2]. In series [3] (25 mpk), the “Fall in MBP” value came out at 7 mm Hg.
As to `CCCCCCCn1c(=O)c(C=O)c(O)c2ccccc21` [Formula 1.4], the CC50 at 24 h in series [1] worked out at 32 µg/mL. In addition, the IC50 in the series on HSV-2 (strain MS) (setting [5]) and in the series on HSV-2 (strain MS) (setting [4]) was 4 µg/mL each time.
Consider `Cc1ccc2c(c1)c(O)c(C=O)c(=O)n2Cc1ccccc1` [Formula 1.5], for which the CC50 at 24 h in series [1] was found to be 16 µg/mL. Further, the values for the IC50 (in the series with HSV-2 (strain MS) (setting [4]); in [2]) were 4 µg/mL and 90 µM, respectively. Moreover, in series [3] (50 mpk), the “Fall in MBP” value is on record as 40 mm Hg.
With `O=Cc1c(O)c2cc(Cl)ccc2n(Cc2ccccc2)c1=O` [Formula 1.6], the CC50 at 24 h in [1] is 15 µg/mL. For the same compound, the IC50 with HSV-2 (strain MS) (setting [4]) is 4 µg/mL; in series [2], 17 µM. Moreover, the “Fall in MBP” value in [3] (25 mpk) stood at 48 mm Hg.
With `Cn1c(=O)c(C=O)c(O)c2ccccc21` [Formula 1.7], the CC50 at 24 h in series [1] was determined as 56 µg/mL. The IC50 in the series on HSV-2 (strain MS) (setting [5]) and with HSV-2 (strain MS) (setting [4]) was 7 µg/mL each time.
In the case of `O=Cc1c(O)c2ccccc2n(Cc2ccccc2)c1=O` [Formula 1.8], the CC50 at 24 h in series [1] worked out at 29 µg/mL. The IC50 in the series with HSV-2 (strain MS) (setting [4]) was 7 µg/mL.
`O=Cc1c(O)c2ccccc2n(-c2ccccc2)c1=O` [Formula 1.9]: the “Neurological Dysfunction (%)” value in the series with HSV-2, strain MS was determined as 0%. Also, the “MLS (Maximum Lesion Scores)” value in the series on HSV-2, strain MS came to 0.67. Also, the CC50 at 24 h in [1] was found to be 12 µg/mL. For the same compound, the IC50 in the series on HSV-2 (strain MS) (setting [4]) was 8 µg/mL; in series [2], 18 µM.
Consider `O=Cc1c(O)c2cc(OCc3ccccc3)ccc2n(Cc2ccccc2)c1=O` [Formula 1.10], for which the CC50 at 24 h in [1] amounted to 32 µg/mL. Moreover, the IC50 in the series with HSV-2 (strain MS) (setting [4]) is 10 µg/mL.
In the same order, the values of `CCCCCCn1c(=O)c(C=O)c(O)c2ccccc21` [Formula 1.11] are 20 µg/mL and 8 µg/mL.
On to `O=Cc1c(O)c2cc(O)ccc2n(Cc2ccccc2)c1=O` [Formula 1.12], for which the IC50 with HSV-2 (strain MS) (setting [4]) was 13 µg/mL.
For the compound `COc1ccc(OCCCOCn2c(=O)c(C=O)c(O)c3ccccc32)c(Cl)c1` [Formula 1.14], the half-maximal inhibitory concentration (IC50) with HSV-2 (strain MS) (setting [4]) stood at 18 µg/mL.
For the compound `O=Cc1c(O)c2ccc(Cl)cc2n(Cc2ccccc2)c1=O` [Formula 1.15], in [1], the CC50 at 24 h worked out at 23 µg/mL. Also, the IC50 in the series on HSV-2 (strain MS) (setting [4]) came to 5 µg/mL.
Taken in the same sequence, the figures for `CC1(C)C(=O)C(C=O)=C(O)c2ccccc21` [Formula 1.16] were 34 µg/mL and 7 µg/mL.
As to `CCN(CC)CC(=O)Nc1c(C)cccc1C` [lidocaine, 2-(diethylamino)-N-(2,6-dimethylphenyl)acetamide], the “antiviral activity in cell culture (in words)” value with HSV-2 is “antiviral agent in cell culture against HSV-1 and HSV-2”; in the series on HSV-1 it was “antiviral agent in cell culture against HSV-1 and HSV-2”. The “treatment of HSV oral and genital lesions (in words)” value in the series with HSV is “particularly effective in the treatment of HSV oral and genital lesions in humans”. Moreover, the “treatment of herpes virus infections (in words)” value with herpes virus is given as “able to treat herpes virus infections of mammals”.
